Laboratory results from ChEMBL document CHEMBL3779848, “Effect of chlorine substituent on cytotoxic activities: Design and synthesis of systematically modified 2,4-diphenyl-5H-indeno[1,2-b]pyridines” (Bioorg Med Chem Lett, 2016).
Counter-ions that a name gives are not always drawn.

Tests used:
[1] = target: T1, DNA topoisomerase 1 (Homo sapiens) (UniProt P11387); assay: Inhibition of human recombinant DNA topoisomerase 1 at 100 uM assessed as relaxation of supercoiled DNA pBR322 after 30 mins by Agarose gel electrophoresis
T1 sequence (whole entry): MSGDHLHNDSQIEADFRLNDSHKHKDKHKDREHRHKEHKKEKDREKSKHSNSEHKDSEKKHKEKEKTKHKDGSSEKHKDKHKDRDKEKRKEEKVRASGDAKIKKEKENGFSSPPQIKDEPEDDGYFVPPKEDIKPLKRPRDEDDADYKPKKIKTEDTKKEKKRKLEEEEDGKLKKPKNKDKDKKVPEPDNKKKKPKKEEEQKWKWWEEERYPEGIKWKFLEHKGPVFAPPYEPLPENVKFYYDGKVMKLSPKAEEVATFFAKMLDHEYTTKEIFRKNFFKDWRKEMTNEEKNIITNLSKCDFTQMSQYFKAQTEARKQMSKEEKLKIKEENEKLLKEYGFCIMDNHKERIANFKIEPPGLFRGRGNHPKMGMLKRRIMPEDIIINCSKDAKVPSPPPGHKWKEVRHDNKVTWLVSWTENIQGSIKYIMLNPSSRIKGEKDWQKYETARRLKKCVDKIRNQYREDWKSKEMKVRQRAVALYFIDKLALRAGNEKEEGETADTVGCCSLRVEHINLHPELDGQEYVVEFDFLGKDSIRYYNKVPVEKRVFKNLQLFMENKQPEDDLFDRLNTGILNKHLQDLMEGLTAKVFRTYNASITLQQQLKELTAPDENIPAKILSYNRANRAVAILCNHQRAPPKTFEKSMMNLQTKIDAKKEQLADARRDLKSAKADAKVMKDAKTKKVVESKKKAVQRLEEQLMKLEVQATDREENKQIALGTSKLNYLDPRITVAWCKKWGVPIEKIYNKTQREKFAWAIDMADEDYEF

[2] = target: DNA topoisomerase 2-alpha (Homo sapiens) (UniProt P11388); assay: Inhibition of human recombinant DNA topoisomerase 2alpha at 100 uM assessed as relaxation of supercoiled DNA pBR322 after 30 mins by Agarose gel electrophoresis
DNA topoisomerase 2-alpha (Homo sapiens), sequence (P11388 whole entry): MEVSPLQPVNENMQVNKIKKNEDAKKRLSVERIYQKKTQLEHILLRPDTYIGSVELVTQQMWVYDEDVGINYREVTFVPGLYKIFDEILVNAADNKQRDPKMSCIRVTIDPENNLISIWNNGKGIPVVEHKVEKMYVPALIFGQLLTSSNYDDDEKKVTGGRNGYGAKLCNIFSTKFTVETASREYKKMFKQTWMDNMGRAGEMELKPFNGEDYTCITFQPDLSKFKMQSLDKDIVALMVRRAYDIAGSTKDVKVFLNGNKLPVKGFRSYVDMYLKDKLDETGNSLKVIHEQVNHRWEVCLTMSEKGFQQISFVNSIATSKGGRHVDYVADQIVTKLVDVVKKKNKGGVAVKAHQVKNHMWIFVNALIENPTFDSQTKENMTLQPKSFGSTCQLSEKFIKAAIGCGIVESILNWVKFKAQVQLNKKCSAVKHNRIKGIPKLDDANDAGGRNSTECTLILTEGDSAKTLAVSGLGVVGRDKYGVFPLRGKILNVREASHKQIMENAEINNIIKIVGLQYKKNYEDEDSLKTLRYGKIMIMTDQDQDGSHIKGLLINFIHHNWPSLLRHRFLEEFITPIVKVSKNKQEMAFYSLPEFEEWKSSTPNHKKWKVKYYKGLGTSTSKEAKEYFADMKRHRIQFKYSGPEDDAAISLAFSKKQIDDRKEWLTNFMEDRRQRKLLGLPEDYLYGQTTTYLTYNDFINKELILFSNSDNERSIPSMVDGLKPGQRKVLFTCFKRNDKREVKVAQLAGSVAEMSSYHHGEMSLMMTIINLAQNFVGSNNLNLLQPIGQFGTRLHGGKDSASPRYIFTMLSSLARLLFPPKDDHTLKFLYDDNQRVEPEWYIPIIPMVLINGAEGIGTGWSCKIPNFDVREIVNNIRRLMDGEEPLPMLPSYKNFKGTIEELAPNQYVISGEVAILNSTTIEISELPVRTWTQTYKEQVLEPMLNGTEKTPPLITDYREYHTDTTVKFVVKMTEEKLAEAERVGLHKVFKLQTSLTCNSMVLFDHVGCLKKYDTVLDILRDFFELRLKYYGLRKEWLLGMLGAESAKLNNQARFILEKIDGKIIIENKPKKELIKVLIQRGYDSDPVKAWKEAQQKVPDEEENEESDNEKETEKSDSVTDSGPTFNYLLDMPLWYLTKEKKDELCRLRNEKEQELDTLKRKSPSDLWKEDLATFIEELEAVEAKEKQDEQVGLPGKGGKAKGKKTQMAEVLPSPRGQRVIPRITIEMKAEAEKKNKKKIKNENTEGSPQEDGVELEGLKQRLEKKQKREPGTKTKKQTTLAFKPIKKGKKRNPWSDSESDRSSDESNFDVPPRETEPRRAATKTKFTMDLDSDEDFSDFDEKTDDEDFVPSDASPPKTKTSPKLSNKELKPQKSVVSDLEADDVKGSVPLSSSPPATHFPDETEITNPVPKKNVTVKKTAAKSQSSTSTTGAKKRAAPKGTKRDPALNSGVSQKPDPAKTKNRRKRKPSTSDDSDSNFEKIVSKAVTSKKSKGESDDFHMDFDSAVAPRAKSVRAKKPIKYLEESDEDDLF

[3] = Cytotoxicity against human HCT15 cells after 3 days by CCK8 assay; format: functional, cell-based; details: HCT-15, 72 h
T47D [4] = assay: Cytotoxicity against human T47D cells after 3 days by CCK8 assay; format: functional, cell-based; details: 72 h
HeLa [5] = assay: Cytotoxicity against human HeLa cells after 3 days by CCK8 assay; format: functional, cell-based; details: 72 h
[6] = Potency index, ratio of IC50 for adriamycin to IC50 for test compound for cytotoxicity against human HCT15 cells; format: functional, HCT-15
T47D [7] = assay: Potency index, ratio of IC50 for adriamycin to IC50 for test compound for cytotoxicity against human T47D cells; format: functional
HeLa [8] = assay: Potency index, ratio of IC50 for adriamycin to IC50 for test compound for cytotoxicity against human HeLa cells; format: functional
[9] = target: T1, DNA topoisomerase 1 (Homo sapiens); assay: Inhibition of human recombinant DNA topoisomerase 1 at 20 uM assessed as relaxation of supercoiled DNA pBR322 after 30 mins by Agarose gel electrophoresis

| SMILES | inhibition [1] [%] | inhibition [2] [%] | IC50 [3] [nM] | IC50 (T47D [4]) [nM] | IC50 (HeLa [5]) [nM] | Ratio IC50 [6] | Ratio IC50 (T47D [7]) | Ratio IC50 (HeLa [8]) | inhibition [9] [%] |
| --- | --- | --- | --- | --- | --- | --- | --- | --- | --- |
| Oc1ccc(-c2cc(-c3ccc(Cl)cc3)nc3c2Cc2ccccc2-3)cc1 | 1.4 | 3.2 | 870 | 1270 | 4340 | 0.11 | 1.16 | 0.19 |  |
| CC[C@@]1(O)C(=O)OCc2c1cc1n(c2=O)Cc2cc3ccccc3nc2-1 [CAMPTOTHECIN] |  |  | 1290 | 11200 | 590 |  |  |  |  |
| Oc1cccc(-c2cc(-c3cccc(Cl)c3)nc3c2Cc2ccccc2-3)c1 | 0 | 3.2 | 3090 | 1320 | 4590 | 0.03 | 1.11 | 0.18 |  |
| Oc1ccccc1-c1cc(-c2ccccc2Cl)nc2c1Cc1ccccc1-2 | 0.8 | 1.9 | 6230 | 6640 | 7010 |  |  |  |  |
| Oc1cccc(-c2cc(-c3ccccc3)c3c(n2)-c2ccccc2C3)c1 | 2.3 | 76 | 2710 | 3930 | 2990 | 0.45 | 0.34 | 0.29 |  |
| Oc1ccccc1-c1cc(-c2cccc(Cl)c2)c2c(n1)-c1ccccc1C2 | 1.1 | 2.8 | > 50000 | > 50000 | > 50000 |  |  |  |  |
| COc1cccc2c1C(=O)c1c(O)c3c(c(O)c1C2=O)C[C@@](O)(C(=O)CO)C[C@@H]3O[C@H]1C[C@H](N)[C@H](O)[C@H](C)O1 [DOXORUBICIN HYDROCHLORIDE] |  |  |  |  | 820 |  |  |  |  |
| Oc1ccc(-c2cc(-c3cccc(Cl)c3)nc3c2Cc2ccccc2-3)cc1 | 0 | 3 | 310 | 1420 | 5040 | 0.32 | 1.03 | 0.16 |  |
| Oc1ccccc1-c1cc(-c2ccccc2)c2c(n1)-c1ccccc1C2 | 1.3 | 36.4 | > 50000 | > 50000 | > 50000 |  |  |  |  |
| Oc1ccc(-c2cc(-c3ccccc3)nc3c2Cc2ccccc2-3)cc1 | 25.9 | 65.9 | 2150 | 1360 | 4840 | 0.57 | 0.98 | 0.18 |  |
| Oc1ccccc1-c1cc(-c2ccc(Cl)cc2)c2c(n1)-c1ccccc1C2 | 8.3 | 2.8 | > 50000 | > 50000 | > 50000 |  |  |  |  |
| Oc1cccc(-c2cc(-c3ccc(Cl)cc3)nc3c2Cc2ccccc2-3)c1 | 0 | 3.9 | 1880 | 1360 | 6580 | 0.05 | 1.08 | 0.12 |  |
| Oc1cccc(-c2cc(-c3ccccc3Cl)c3c(n2)-c2ccccc2C3)c1 | 29.3 | 6.7 | 1170 | 2190 | 2650 | 0.08 | 0.67 | 0.31 |  |
| Oc1ccccc1-c1cc(-c2cccc(Cl)c2)nc2c1Cc1ccccc1-2 | 0 | 5.4 | 30300 | > 50000 | 17100 |  |  |  |  |
| Oc1ccccc1-c1cc(-c2ccccc2)nc2c1Cc1ccccc1-2 | 15.1 | 69.6 | > 50000 | > 50000 | > 50000 |  |  |  |  |
| Oc1ccc(-c2cc(-c3ccc(Cl)cc3)c3c(n2)-c2ccccc2C3)cc1 | 19.1 | 8.5 | 930 | 880 | 2450 | 0.11 | 1.67 | 0.33 |  |
| COc1cc([C@@H]2c3cc4c(cc3[C@@H](O[C@@H]3O[C@@H]5CO[C@@H](C)O[C@H]5[C@H](O)[C@H]3O)[C@H]3COC(=O)[C@H]23)OCO4)cc(OC)c1O [ETOPOSIDE] |  |  | 2820 | 1840 | 180 |  |  |  |  |
| Oc1ccccc1-c1cc(-c2ccccc2Cl)c2c(n1)-c1ccccc1C2 | 0 | 4.8 | > 50000 | > 50000 | > 50000 |  |  |  |  |
| Oc1cccc(-c2cc(-c3cccc(Cl)c3)c3c(n2)-c2ccccc2C3)c1 | 7.5 | 4.4 | 1590 | 1850 | 1910 | 0.06 | 0.79 | 0.43 |  |
| Oc1ccc(-c2cc(-c3ccccc3)c3c(n2)-c2ccccc2C3)cc1 | 5.2 | 80.6 | 2010 | 2100 | 3930 | 0.61 | 0.63 | 0.22 |  |
| Oc1cccc(-c2cc(-c3ccc(Cl)cc3)c3c(n2)-c2ccccc2C3)c1 | 5.8 | 3.8 | 2090 | 1490 | 2270 | 0.05 | 0.99 | 0.36 |  |
| Oc1ccccc1-c1cc(-c2ccc(Cl)cc2)nc2c1Cc1ccccc1-2 | 0 | 2.7 | > 50000 | > 50000 | > 50000 |  |  |  |  |
| Oc1cccc(-c2cc(-c3ccccc3)nc3c2Cc2ccccc2-3)c1 | 20.6 | 70.5 | 1350 | 1550 | 4000 | 0.91 | 0.86 | 0.22 |  |
| Oc1ccc(-c2cc(-c3ccccc3Cl)nc3c2Cc2ccccc2-3)cc1 | 0 | 3.5 | 1820 | 790 | 2700 | 0.05 | 1.86 | 0.3 |  |
| Oc1cccc(-c2cc(-c3ccccc3Cl)nc3c2Cc2ccccc2-3)c1 | 0 | 3.1 | 400 | 310 | 2010 | 0.25 | 4.74 | 0.41 |  |
| Oc1ccc(-c2cc(-c3cccc(Cl)c3)c3c(n2)-c2ccccc2C3)cc1 | 35.5 | 4.9 | 810 | 1630 | 3680 | 0.12 | 0.9 | 0.22 | 2.8 |
| Oc1ccc(-c2cc(-c3ccccc3Cl)c3c(n2)-c2ccccc2C3)cc1 | 15.5 | 1.6 | 840 | 1630 | 3410 | 0.12 | 0.9 | 0.24 |  |
| c1ccc(-c2cc(-c3ccccc3)c3c(n2)-c2ccccc2C3)cc1 | 0 | 17.8 | > 50000 | 26800 | 17300 |  |  |  |  |
